The target of series [1] is T1, Amine oxidase [flavin-containing] A (Homo sapiens, UniProt P21397).
T1 sequence (P21397 whole entry): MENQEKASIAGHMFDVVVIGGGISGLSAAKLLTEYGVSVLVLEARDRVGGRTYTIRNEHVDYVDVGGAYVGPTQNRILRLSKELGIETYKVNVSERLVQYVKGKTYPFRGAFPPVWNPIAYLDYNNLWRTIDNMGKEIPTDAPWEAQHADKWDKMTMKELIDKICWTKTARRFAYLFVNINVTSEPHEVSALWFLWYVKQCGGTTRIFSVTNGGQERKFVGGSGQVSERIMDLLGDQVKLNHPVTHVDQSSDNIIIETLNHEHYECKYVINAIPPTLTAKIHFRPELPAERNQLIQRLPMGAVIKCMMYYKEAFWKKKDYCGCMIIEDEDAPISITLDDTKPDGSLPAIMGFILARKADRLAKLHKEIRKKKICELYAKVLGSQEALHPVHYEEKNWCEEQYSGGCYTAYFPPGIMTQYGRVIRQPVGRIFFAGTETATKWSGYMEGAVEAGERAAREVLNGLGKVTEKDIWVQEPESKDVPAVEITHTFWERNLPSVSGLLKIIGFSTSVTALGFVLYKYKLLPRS
Nature of the series: Inhibition of human recombinant MAOA expressed in baculovirus-infected BTI insect cells at 100 uM after 15 mins by fluorimetric assay. The settings on record: 0.25 h.

Series [2] deals with T2, Amine oxidase [flavin-containing] B (Homo sapiens, UniProt P27338).
T2 sequence (P27338 whole entry): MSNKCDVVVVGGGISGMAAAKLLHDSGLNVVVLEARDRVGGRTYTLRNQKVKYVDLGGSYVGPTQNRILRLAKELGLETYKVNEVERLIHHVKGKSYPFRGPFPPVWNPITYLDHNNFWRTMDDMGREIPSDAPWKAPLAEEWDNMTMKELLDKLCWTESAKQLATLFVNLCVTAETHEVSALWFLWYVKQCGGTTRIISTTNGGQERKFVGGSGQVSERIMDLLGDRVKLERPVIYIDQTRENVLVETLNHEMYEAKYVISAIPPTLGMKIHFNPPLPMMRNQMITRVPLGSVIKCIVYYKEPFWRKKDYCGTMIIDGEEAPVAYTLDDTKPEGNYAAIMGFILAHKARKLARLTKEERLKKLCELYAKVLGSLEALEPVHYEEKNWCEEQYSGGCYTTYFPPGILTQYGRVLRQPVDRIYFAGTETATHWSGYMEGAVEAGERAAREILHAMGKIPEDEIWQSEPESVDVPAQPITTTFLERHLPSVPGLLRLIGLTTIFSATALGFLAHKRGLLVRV
Nature of the series: Inhibition of human recombinant MAOB expressed in baculovirus-infected BTI insect cells at 100 uM after 15 mins by fluorimetric assay. The following applies: 0.25 h.

Series [3] addresses T2, Amine oxidase [flavin-containing] B. Nature of the series: Inhibition of human recombinant MAOB expressed in baculovirus-infected BTI insect cells after 15 mins by fluorimetric assay. Format: cell-based.
The next series is filed under the species Homo sapiens. Nature of the series: Selectivity ratio of IC50 for human recombinant MAOA to IC50 for human recombinant MAOB.

The values below come from ChEMBL document CHEMBL1641485, “Chromone 3-phenylcarboxamides as potent and selective MAO-B inhibitors” (Bioorg Med Chem Lett, 2011).

On to `Cc1ccc(NC(=O)c2cc(=O)c3ccccc3o2)cc1`, for which the “inhibition (INH)” value in series [1] and in series [2] was “Not Active” in each case.

With `CSc1ccc(NC(=O)c2coc3ccccc3c2=O)cc1`, the IC50 in series [3] was 120 nM. The “inhibition (INH)” value in series [1] is reported as “Not Active”. In the series filed under Homo sapiens, the Ratio IC50 was > 833.

As to `COc1ccc(NC(=O)c2cc(=O)c3ccccc3o2)cc1`, the “inhibition (INH)” value in series [1] and in series [2] was “Not Active” each time.

On to `O=C(Nc1ccccc1)c1cc(=O)c2ccccc2o1`, for which the “inhibition (INH)” value in series [1] and in series [2] was “Not Active” in each case.

Regarding `CSc1ccc(NC(=O)c2cc(=O)c3ccccc3o2)cc1`, the “inhibition (INH)” value in series [1] and in series [2] was “Not Active” throughout.

For `O=C(Nc1ccc(I)cc1)c1cc(=O)c2ccccc2o1`, the “inhibition (INH)” value in series [1] and in series [2] was “Not Active” each time.

Turning to `COc1ccc(NC(=O)c2coc3ccccc3c2=O)cc1`, the IC50 in series [3] stood at 450 nM. The “inhibition (INH)” value in series [1] is recorded as “Not Active”. Besides, the Ratio IC50 in the series listed under Homo sapiens is > 222.
